Activity calls are given as the source filed them. No cut-off for these calls is given here.
Key:
[1] = biological target: D(1B) dopamine receptor (Homo sapiens) (UniProt P21918); test: Binding affinity to D5 receptor (unknown origin) 10 umol/L by radioligand binding assay; details: dose 10.0 µmol/L
[2] = biological target: Muscarinic acetylcholine receptor M1 (Homo sapiens) (UniProt P11229); test: Binding affinity to muscarinic M1 (unknown origin) 10 umol/L by radioligand binding assay; details: dose 10.0 µmol/L
[3] = biological target: Sodium-dependent dopamine transporter (Homo sapiens) (UniProt Q01959); test: Binding affinity to dopamine transporter (unknown origin) 10 umol/L by radioligand binding assay; details: dose 10.0 µmol/L
[4] = biological target: D(3) dopamine receptor (Homo sapiens) (UniProt P35462); test: Binding affinity to D3 receptor (unknown origin) 10 umol/L by radioligand binding assay; details: dose 10.0 µmol/L
D(3) dopamine receptor (Homo sapiens), sequence (P35462 whole entry): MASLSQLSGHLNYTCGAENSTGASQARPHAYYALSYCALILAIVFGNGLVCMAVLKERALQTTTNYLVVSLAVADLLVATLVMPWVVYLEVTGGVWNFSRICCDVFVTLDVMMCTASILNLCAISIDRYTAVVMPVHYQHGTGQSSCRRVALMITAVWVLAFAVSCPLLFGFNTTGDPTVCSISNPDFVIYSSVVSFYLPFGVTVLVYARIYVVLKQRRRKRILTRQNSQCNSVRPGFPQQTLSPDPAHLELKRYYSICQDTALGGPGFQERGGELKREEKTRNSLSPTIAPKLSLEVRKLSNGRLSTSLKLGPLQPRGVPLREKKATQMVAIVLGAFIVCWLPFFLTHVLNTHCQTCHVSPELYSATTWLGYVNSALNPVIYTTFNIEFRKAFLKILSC

Homo sapiens [5] = species: Homo sapiens; test: Binding affinity to NMDA receptor polyamine site (unknown origin) 10 umol/L by radioligand binding assay; details: dose 10.0 µmol/L
[6] = Lipophilicity, logD of compound in n-octanol and phosphate buffered saline at 2 mg after 1.5 hrs by HPLC based shake flask method; format: physicochemical
[7] = biological target: Neurotensin receptor type 1 (Homo sapiens) (UniProt P30989); test: Binding affinity to NT1 receptor (unknown origin) 10 umol/L by radioligand binding assay; details: dose 10.0 µmol/L
[8] = biological target: Platelet-activating factor receptor (Homo sapiens) (UniProt P25105); test: Binding affinity to PAF receptor (unknown origin) 10 umol/L by radioligand binding assay; details: dose 10.0 µmol/L
Platelet-activating factor receptor (Homo sapiens), sequence (P25105 whole entry): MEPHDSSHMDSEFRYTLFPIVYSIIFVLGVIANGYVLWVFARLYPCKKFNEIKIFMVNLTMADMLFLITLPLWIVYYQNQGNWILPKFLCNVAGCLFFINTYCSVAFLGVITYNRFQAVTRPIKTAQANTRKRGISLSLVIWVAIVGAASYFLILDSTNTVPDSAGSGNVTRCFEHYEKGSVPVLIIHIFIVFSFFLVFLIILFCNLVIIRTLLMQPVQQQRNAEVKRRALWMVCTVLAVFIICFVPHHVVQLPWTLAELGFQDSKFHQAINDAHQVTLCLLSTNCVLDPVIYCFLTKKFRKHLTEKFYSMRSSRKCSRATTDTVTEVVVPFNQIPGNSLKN

[9] = biological target: Cholecystokinin receptor type A (Homo sapiens) (UniProt P32238); test: Binding affinity to CCKA (unknown origin) 10 umol/L by radioligand binding assay; details: dose 10.0 µmol/L
Cholecystokinin receptor type A (Homo sapiens), sequence (P32238 whole entry): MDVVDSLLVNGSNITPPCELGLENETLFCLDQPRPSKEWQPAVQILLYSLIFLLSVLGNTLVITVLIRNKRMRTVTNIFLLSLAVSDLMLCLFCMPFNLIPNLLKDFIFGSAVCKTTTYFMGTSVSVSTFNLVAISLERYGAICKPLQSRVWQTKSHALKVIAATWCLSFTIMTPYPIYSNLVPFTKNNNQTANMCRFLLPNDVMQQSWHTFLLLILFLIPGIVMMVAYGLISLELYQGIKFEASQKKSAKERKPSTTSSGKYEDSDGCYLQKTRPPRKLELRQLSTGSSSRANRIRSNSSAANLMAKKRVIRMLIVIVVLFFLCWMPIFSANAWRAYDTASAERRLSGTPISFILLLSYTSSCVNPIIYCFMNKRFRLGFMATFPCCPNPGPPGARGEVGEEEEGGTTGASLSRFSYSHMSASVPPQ

[10] = biological target: Histamine H2 receptor (Homo sapiens) (UniProt P25021); test: Binding affinity to H2 receptor (unknown origin) 10 umol/L by radioligand binding assay; details: dose 10.0 µmol/L
Histamine H2 receptor (Homo sapiens), sequence (P25021 whole entry): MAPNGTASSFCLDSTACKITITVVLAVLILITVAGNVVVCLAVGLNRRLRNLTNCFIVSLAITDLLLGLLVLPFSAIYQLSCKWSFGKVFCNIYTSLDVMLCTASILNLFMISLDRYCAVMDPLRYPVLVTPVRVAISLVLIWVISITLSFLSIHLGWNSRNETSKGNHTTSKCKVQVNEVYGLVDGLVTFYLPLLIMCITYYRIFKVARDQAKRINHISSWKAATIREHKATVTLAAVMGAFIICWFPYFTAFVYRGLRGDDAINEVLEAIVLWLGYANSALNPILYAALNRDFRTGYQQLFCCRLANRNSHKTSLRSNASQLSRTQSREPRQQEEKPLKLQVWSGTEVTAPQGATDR

[11] = biological target: Sigma intracellular receptor 2 (Homo sapiens) (UniProt Q5BJF2); test: Binding affinity to sigma2 receptor (unknown origin) 10 umol/L by radioligand binding assay; details: dose 10.0 µmol/L
Sigma intracellular receptor 2 (Homo sapiens), sequence (Q5BJF2 whole entry): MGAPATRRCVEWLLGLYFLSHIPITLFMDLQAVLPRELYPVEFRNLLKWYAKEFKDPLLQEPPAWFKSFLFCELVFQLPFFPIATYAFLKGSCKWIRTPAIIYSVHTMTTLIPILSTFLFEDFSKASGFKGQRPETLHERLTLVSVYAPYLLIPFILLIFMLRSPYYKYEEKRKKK

[12] = biological target: T1, Metabotropic glutamate receptor 3 (Homo sapiens, UniProt Q14832); test: Agonist activity at human mGlu3 receptor expressed in CHO cell membranes by GTPgammaS binding assay relative to control; format: functional, Cell membrane
Homo sapiens [13] = species: Homo sapiens; test: Binding affinity to ATP-sensitive inward rectifier potassium channel (unknown origin) 10 umol/L by radioligand binding assay; details: dose 10.0 µmol/L
[14] = biological target: Gastrin/cholecystokinin type B receptor (Homo sapiens) (UniProt P32239); test: Binding affinity to CCKB (unknown origin) 10 umol/L by radioligand binding assay; details: dose 10.0 µmol/L
[15] = biological target: Histamine H3 receptor (Homo sapiens) (UniProt Q9Y5N1); test: Binding affinity to H3 receptor (unknown origin) 10 umol/L by radioligand binding assay; details: dose 10.0 µmol/L
[16] = biological target: Endothelin-1 receptor (Homo sapiens) (UniProt P25101); test: Binding affinity to ETA receptor (unknown origin) 10 umol/L by radioligand binding assay; details: dose 10.0 µmol/L
[17] = biological target: T2, Voltage-gated L-type calcium channel (Homo sapiens, UniProt Q13936+Q13698+Q01668+O60840); test: Binding affinity to Voltage-dependent L-type calcium channel phenylalkylamine site (unknown origin) 10 umol/L by radioligand binding assay; format: protein assay; details: 10 µM, dose 10 µmol/L
Homo sapiens [18] = species: Homo sapiens; test: Binding affinity to GABAB (unknown origin) 10 umol/L by radioligand binding assay; details: dose 10.0 µmol/L
[19] = biological target: Corticotropin-releasing factor receptor 1 (Homo sapiens) (UniProt P34998); test: Binding affinity to CRF1(unknown origin) 10 umol/L by radioligand binding assay; details: dose 10.0 µmol/L
Homo sapiens [20] = species: Homo sapiens; test: Binding affinity to Small conductance calcium-activated potassium channel (unknown origin) 10 umol/L by radioligand binding assay; details: dose 10.0 µmol/L
[21] = biological target: Endothelin receptor type B (Homo sapiens) (UniProt P24530); test: Binding affinity to ETB receptor (unknown origin) 10 umol/L by radioligand binding assay; details: dose 10.0 µmol/L
Homo sapiens [22] = species: Homo sapiens; test: Binding affinity to NMDA receptor PCP site (unknown origin) 10 umol/L by radioligand binding assay; details: dose 10.0 µmol/L
[23] = biological target: Substance-K receptor (Homo sapiens) (UniProt P21452); test: Binding affinity to NK2 receptor (unknown origin) 10 umol/L by radioligand binding assay; details: dose 10.0 µmol/L
[24] = biological target: Beta-1 adrenergic receptor (Homo sapiens) (UniProt P08588); test: Binding affinity to beta1 adrenoreceptor (unknown origin) 10 umol/L by radioligand binding assay; details: dose 10.0 µmol/L
[25] = biological target: Nociceptin receptor (Homo sapiens) (UniProt P41146); test: Binding affinity to ORL1 receptor (unknown origin) 10 umol/L by radioligand binding assay; details: dose 10.0 µmol/L
Homo sapiens [26] = species: Homo sapiens; test: Binding affinity to Leukotriene B4 receptor (unknown origin) 10 umol/L by radioligand binding assay; details: dose 10.0 µmol/L
[27] = biological target: 5-hydroxytryptamine receptor 3A (Homo sapiens) (UniProt P46098); test: Binding affinity to 5-HT3 receptor (unknown origin) 10 umol/L by radioligand binding assay; details: dose 10.0 µmol/L
[28] = biological target: Mu-type opioid receptor (Homo sapiens) (UniProt P35372); test: Binding affinity to mu receptor (unknown origin) 10 umol/L by radioligand binding assay; details: dose 10.0 µmol/L
Mu-type opioid receptor (Homo sapiens), sequence (P35372 whole entry): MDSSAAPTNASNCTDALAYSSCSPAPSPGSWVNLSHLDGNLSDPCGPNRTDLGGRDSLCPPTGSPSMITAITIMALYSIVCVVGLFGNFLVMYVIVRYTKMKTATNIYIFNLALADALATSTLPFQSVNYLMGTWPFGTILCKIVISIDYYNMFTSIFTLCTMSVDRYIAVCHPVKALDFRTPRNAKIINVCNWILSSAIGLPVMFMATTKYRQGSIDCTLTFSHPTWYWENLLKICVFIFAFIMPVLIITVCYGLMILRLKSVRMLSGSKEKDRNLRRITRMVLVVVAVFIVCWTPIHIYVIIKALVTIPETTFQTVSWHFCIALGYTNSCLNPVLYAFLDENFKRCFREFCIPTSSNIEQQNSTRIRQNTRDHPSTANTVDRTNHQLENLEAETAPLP

[29] = biological target: Muscarinic acetylcholine receptor M3 (Homo sapiens) (UniProt P20309); test: Binding affinity to muscarinic M3 (unknown origin) 10 umol/L by radioligand binding assay; details: dose 10.0 µmol/L
Muscarinic acetylcholine receptor M3 (Homo sapiens), sequence (P20309 whole entry, looked up): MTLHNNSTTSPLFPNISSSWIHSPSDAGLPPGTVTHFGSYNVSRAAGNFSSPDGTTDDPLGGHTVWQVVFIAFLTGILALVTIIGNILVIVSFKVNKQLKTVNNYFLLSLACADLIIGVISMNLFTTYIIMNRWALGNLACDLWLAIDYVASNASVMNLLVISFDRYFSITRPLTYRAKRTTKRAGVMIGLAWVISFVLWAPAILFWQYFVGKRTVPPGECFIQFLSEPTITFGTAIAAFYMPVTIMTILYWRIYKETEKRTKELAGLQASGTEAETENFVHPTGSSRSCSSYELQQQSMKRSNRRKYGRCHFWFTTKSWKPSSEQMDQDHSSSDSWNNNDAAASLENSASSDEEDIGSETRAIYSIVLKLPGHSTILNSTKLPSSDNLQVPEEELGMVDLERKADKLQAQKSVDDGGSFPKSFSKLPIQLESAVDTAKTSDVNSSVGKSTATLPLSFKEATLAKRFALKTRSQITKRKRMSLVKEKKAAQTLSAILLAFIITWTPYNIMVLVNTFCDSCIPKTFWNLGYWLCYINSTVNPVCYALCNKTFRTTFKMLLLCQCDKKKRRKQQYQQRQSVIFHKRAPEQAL

[30] = biological target: T1, Metabotropic glutamate receptor 3; test: Agonist activity at human mGlu3 receptor expressed in CHO cell membranes by GTPgammaS binding assay; format: functional, Cell membrane
Target sequence in this assay (Q14832 whole entry): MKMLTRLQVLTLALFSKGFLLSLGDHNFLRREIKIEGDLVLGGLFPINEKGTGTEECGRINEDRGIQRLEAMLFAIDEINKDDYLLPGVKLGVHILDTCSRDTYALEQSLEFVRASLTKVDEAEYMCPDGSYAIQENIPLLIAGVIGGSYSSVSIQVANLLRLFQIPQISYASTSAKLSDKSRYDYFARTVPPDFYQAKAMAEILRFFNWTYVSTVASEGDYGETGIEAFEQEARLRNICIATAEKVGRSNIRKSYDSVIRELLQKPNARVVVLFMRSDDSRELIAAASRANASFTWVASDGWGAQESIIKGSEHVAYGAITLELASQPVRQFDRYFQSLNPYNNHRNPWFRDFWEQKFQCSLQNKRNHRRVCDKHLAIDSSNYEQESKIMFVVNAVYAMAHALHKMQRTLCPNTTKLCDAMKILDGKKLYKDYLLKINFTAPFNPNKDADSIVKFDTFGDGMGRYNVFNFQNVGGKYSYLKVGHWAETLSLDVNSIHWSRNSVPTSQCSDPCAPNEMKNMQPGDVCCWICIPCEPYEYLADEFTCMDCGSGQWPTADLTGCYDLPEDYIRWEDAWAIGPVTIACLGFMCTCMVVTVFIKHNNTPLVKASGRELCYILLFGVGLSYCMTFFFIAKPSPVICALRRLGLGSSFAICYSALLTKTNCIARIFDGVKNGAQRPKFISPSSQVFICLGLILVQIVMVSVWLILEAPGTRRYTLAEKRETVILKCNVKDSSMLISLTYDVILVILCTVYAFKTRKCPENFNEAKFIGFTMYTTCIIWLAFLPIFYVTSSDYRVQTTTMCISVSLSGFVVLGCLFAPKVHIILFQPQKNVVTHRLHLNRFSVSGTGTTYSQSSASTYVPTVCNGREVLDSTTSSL

[31] = biological target: D(2) dopamine receptor (Homo sapiens) (UniProt P14416); test: Binding affinity to D2S receptor (unknown origin) 10 umol/L by radioligand binding assay; details: dose 10.0 µmol/L
D(2) dopamine receptor (Homo sapiens), sequence (P14416 whole entry): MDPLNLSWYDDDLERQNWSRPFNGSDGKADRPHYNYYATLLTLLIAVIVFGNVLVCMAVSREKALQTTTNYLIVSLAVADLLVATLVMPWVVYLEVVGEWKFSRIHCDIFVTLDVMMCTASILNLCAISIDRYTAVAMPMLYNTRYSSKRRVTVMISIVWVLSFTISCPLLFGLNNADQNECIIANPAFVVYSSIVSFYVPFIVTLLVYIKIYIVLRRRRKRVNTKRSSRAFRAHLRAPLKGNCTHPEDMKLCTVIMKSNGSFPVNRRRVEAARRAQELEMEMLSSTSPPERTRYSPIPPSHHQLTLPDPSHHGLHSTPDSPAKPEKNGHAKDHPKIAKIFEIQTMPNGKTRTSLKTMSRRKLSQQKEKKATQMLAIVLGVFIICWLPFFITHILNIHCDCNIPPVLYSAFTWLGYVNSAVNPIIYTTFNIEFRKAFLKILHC

[32] = biological target: Vasoactive intestinal polypeptide receptor 1 (Homo sapiens) (UniProt P32241); test: Binding affinity to VIP1 receptor (unknown origin) 10 umol/L by radioligand binding assay; details: dose 10.0 µmol/L
Homo sapiens [33] = species: Homo sapiens; test: Binding affinity to Vasopressin V1 receptor (unknown origin) 10 umol/L by radioligand binding assay; details: dose 10.0 µmol/L
Homo sapiens [34] = species: Homo sapiens; test: Binding affinity to GABAA receptor BZ central (unknown origin) 10 umol/L by radioligand binding assay; details: dose 10.0 µmol/L
[35] = biological target: Alpha-2B adrenergic receptor (Homo sapiens) (UniProt P18089); test: Binding affinity to alpha2B adrenoreceptor (unknown origin) 10 umol/L by radioligand binding assay; details: dose 10.0 µmol/L
[36] = biological target: Type-1 angiotensin II receptor (Homo sapiens) (UniProt P30556); test: Binding affinity to AT1 receptor (unknown origin) 10 umol/L by radioligand binding assay; details: dose 10.0 µmol/L
Type-1 angiotensin II receptor (Homo sapiens), sequence (P30556 whole entry): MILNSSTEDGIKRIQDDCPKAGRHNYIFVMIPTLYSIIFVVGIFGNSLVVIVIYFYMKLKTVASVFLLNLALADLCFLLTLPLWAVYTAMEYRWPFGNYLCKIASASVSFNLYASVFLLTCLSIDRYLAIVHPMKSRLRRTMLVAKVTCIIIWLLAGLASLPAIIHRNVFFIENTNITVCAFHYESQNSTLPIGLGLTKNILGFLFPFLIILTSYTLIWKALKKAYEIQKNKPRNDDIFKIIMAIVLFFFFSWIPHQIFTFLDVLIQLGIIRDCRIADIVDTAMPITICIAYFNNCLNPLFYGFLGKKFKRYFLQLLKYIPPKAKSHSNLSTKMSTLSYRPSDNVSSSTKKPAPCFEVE

[37] = biological target: Kappa-type opioid receptor (Homo sapiens) (UniProt P41145); test: Binding affinity to kappa receptor (unknown origin) 10 umol/L by radioligand binding assay; details: dose 10.0 µmol/L
[38] = biological target: Muscarinic acetylcholine receptor M5 (Homo sapiens) (UniProt P08912); test: Binding affinity to muscarinic M5 (unknown origin) 10 umol/L by radioligand binding assay; details: dose 10.0 µmol/L
Muscarinic acetylcholine receptor M5 (Homo sapiens), sequence (P08912 whole entry): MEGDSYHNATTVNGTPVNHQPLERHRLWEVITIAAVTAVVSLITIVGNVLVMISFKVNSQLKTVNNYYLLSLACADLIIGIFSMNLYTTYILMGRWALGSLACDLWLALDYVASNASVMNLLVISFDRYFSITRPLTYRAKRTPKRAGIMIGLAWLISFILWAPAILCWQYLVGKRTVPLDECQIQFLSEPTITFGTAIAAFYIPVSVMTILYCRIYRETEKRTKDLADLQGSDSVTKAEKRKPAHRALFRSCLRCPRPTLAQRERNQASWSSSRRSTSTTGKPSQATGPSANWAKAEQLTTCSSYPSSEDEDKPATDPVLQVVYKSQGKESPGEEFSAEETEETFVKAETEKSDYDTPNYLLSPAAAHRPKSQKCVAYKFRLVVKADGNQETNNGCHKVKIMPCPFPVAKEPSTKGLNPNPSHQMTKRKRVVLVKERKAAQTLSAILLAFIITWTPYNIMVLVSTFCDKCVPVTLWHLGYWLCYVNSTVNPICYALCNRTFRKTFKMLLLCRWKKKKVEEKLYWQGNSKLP

[39] = biological target: Sigma non-opioid intracellular receptor 1 (Homo sapiens) (UniProt Q99720); test: Binding affinity to sigma1 receptor (unknown origin) 10 umol/L by radioligand binding assay; details: dose 10.0 µmol/L
Homo sapiens [40] = species: Homo sapiens; test: Binding affinity to sodium channel site 2 (unknown origin) 10 umol/L by radioligand binding assay; details: dose 10.0 µmol/L
[41] = biological target: Alpha-1B adrenergic receptor (Homo sapiens) (UniProt P35368); test: Binding affinity to alpha1B adrenoreceptor (unknown origin) 10 umol/L by radioligand binding assay; details: dose 10.0 µmol/L
Homo sapiens [42] = species: Homo sapiens; test: Binding affinity to IP3 receptor (unknown origin) 10 umol/L by radioligand binding assay; details: dose 10.0 µmol/L
[43] = biological target: T2, Voltage-gated L-type calcium channel; test: Binding affinity to Voltage-dependent L-type calcium channel dihydropyridine site (unknown origin) 10 umol/L by radioligand binding assay; format: protein assay; details: 10 µM, dose 10 µmol/L

In the case of `CC(C)[C@@H]1CC[C@@H](C)C[C@H]1OC(=O)O[C@@H](C)OC(=O)[C@H]1[C@@H]2C[C@H](F)[C@@](N)(C(=O)O)[C@@H]21`, the Activity [1] is reported as “inactive”, the Activity [2] is reported as “inactive” and the Activity [3] is reported as “inactive”. For the same compound, the Activity [4] was “inactive”, the Activity (Homo sapiens [5]) was “inactive” and the logD at 1.5 h ([6]; n-octanol/phosphate buffered saline) was over 2.04. For the same compound, the Activity [7] was “inactive”, the Activity [8] was “inactive” and the Activity [9] was “inactive”. The Activity [10] was “inactive”, the Activity [11] was “inactive” and the EC50 [12] was over 30 µM. The Activity (Homo sapiens [13]) was “inactive”, the Activity [14] was “inactive” and the Activity [15] was “inactive”. For the same compound, the Activity [16] was “inactive”, the Activity [17] was “Not Active” and the Activity (Homo sapiens [18]) was “inactive”. For the same compound, the Activity [19] was “inactive”, the Activity (Homo sapiens [20]) was “inactive” and the Activity [21] was “inactive”. The Activity (Homo sapiens [22]) was “inactive”, the Activity [23] was “inactive” and the Activity [24] was “inactive”. The Activity [25] was “inactive”, the Activity (Homo sapiens [26]) was “inactive” and the Activity [27] was “inactive”. For the same compound, the Activity [28] was “inactive”, the Activity [29] was “inactive” and the EC50 [30] was over 30 µM. The Activity [31] was “inactive”, the Activity [32] was “inactive” and the Activity (Homo sapiens [33]) was “inactive”. For the same compound, the Activity (Homo sapiens [34]) was “inactive”, the Activity [35] was “inactive” and the Activity [36] was “inactive”. The Activity [37] was “inactive”, the Activity [38] was “inactive” and the Activity [39] was “inactive”. For the same compound, the Activity (Homo sapiens [40]) was “inactive”, the Activity [41] was “inactive” and the Activity (Homo sapiens [42]) was “inactive”. The Activity [43] was “Not Active”.
With `N[C@]1(C(=O)O)[C@H]2[C@@H](C[C@@H]1F)[C@@H]2C(=O)O` the Activity [1] was “inactive”, the Activity [2] was “inactive” and the Activity [3] was “inactive”. For the same compound, the Activity [4] was “inactive”, the Activity (Homo sapiens [5]) was “inactive” and the logD ([6]; 1.5 h) was -4.02. The Activity [7] was “inactive”, the Activity [8] was “inactive” and the Activity [9] was “inactive”. For the same compound, the Activity [10] was “inactive”, the Activity [11] was “inactive” and the Emax ([12]; Cell membrane, filed as agonist) was 102%. The Activity (Homo sapiens [13]) was “inactive”, the Activity [14] was “inactive” and the Activity [15] was “inactive”. The Activity [16] was “inactive”, the Activity [17] was “Not Active” and the Activity (Homo sapiens [18]) was “inactive”. The Activity [19] was “inactive”, the Activity (Homo sapiens [20]) was “inactive” and the Activity [21] was “inactive”. For the same compound, the Activity (Homo sapiens [22]) was “inactive”, the Activity [23] was “inactive” and the Activity [24] was “inactive”. The Activity [25] was “inactive”, the Activity (Homo sapiens [26]) was “inactive” and the Activity [27] was “inactive”. The Activity [28] was “inactive”, the Activity [29] was “inactive” and the EC50 [30] was 0.0759 µM. For the same compound, the Activity [31] was “inactive”, the Activity [32] was “inactive” and the Activity (Homo sapiens [33]) was “inactive”. The Activity (Homo sapiens [34]) was “inactive”, the Activity [35] was “inactive” and the Activity [36] was “inactive”. For the same compound, the Activity [37] was “inactive”, the Activity [38] was “inactive” and the Activity [39] was “inactive”. The Activity (Homo sapiens [40]) was “inactive”, the Activity [41] was “inactive” and the Activity (Homo sapiens [42]) was “inactive”. The Activity [43] was “Not Active”.
